Source: patent US9221792B2, “N-(4-(azetidine-1-carbonyl) phenyl)-(hetero-) arylsulfonamide derivatives as pyruvate kinase M2 (PMK2) modulators” (AGIOS PHARMACEUTICALS, INC, priority 2010, dated 2015)

molecular target: PKM2 (Homo sapiens, UniProt P14618); assay: PKM2 Assay (activation, LDH-coupled NADH absorbance at 340 nm); type: biochemical; details: not given
Description: • PKM2 stock enzyme solution was diluted in Reaction Buffer • 2 μL of compound was added into each well first, and then 180 μL of the Reaction Mix was added. • Reaction mixture with compound (without ADP) were incubated for 30 minutes at 4° C. • Plates were re-equilibrated to room temperature prior to adding 20 μL ADP to initiate the reaction. • Reaction progress was measured as changes in absorbance at 340 nm wavelength at room temperature (25° C.) Reaction Mix: PKM2 (50 ng/well), ADP (0.7 mM), PEP (0.15 mM), NADH (180 μM), LDH (2 units) in Reaction Buffer Reaction Buffer: 100 mM KCl, 50 mM Tris pH 7.5, 5 mM MgCl2, 1 mM DTT, 0.03% BSA.
Certain compounds of Formula I were tested in the above-described assay. A compound described herein may be tested for its ability to activate PKM2. The activation activity of these compounds is represented as an AC50 in Table 2 and throughout the application. […] “B” refers to an activator of PKM2 with an EC50 between 100 nM and 1 μM. “C” refers to an activator of PKM2 with an EC50 between 1 μM and 10 μM. “D” refers to an activator of PKM2 with an EC50 greater than 10 μM. “NA” refers to data that is not available.

Sequence of PKM2 (P14618 whole entry): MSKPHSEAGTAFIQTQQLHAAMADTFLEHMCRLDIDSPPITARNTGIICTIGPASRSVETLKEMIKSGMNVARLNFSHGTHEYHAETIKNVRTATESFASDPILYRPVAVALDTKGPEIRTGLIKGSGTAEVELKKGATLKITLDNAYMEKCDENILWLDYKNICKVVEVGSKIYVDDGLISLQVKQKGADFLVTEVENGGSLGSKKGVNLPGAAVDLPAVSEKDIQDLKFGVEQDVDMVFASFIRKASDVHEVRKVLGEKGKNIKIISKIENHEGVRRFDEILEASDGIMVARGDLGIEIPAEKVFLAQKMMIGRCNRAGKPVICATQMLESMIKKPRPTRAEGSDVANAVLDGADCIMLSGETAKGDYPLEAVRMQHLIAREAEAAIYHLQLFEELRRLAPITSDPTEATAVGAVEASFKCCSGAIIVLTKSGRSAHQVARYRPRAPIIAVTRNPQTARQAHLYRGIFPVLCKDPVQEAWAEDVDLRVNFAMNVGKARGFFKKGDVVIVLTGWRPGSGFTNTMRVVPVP

Structure (SMILES) | AC50
O=C(Cc1ccccc1)OC1CN(C(=O)c2ccc(NS(=O)(=O)c3cccc4cccnc34)cc2)C1 [Compound 123, 1-(4-(Quinoline-8-sulfonamido)benzoyl)azetidin-3-yl 2-phenylacetate] | 100 to 1000 nM

same assay, conditions: activation of PKM2; PKM2 50 ng/well, ADP 0.7 mM, PEP 0.15 mM, room temperature (25° C.); read-out: AC50

Structure (SMILES) | AC50
O=C(c1ccc(NS(=O)(=O)c2cccc3cccnc23)cc1)N1CC(Oc2ccccc2)C1 [Compound 100] | 100 to 1000 nM
O=C(c1ccc(NS(=O)(=O)c2cccc3cccnc23)cc1)N1CC(O)(Cc2ccccc2)C1 [Compound 101, N-(4-(3-benzyl-3-hydroxyazetidine-1-carbonyl)phenyl)quinoline-8-sulfonamide] | < 100 nM
O=C(OC1CN(C(=O)c2ccc(NS(=O)(=O)c3cccc4cccnc34)cc2)C1)c1ccccn1 [Compound 102, 1-(4-(Quinoline-8-sulfonamido)benzoyl)azetidin-3-yl picolinate] | 1000 to 10000 nM
Cc1cc(C(=O)N2CC(NC(=O)c3ccccn3)C2)ccc1NS(=O)(=O)c1cccc2cccnc12 [Compound 103, N-(1-(3-Methyl-4-(quinoline-8-sulfonamido)benzoyl)azetidin-3-yl)picolinamide] | 100 to 1000 nM
O=C(NC1CN(C(=O)c2ccc(S(=O)(=O)Nc3cccc4cccnc34)cc2)C1)c1ccccn1 [Compound 104] | > 10000 nM
COC1(Cc2ccccc2)CN(C(=O)c2ccc(NS(=O)(=O)c3cccc4cccnc34)cc2)C1 [Compound 105, N-(4-(3-benzyl-3-methoxyazetidine-1-carbonyl)phenyl)quinoline-8-sulfonamide] | 100 to 1000 nM
Cc1cc(C(=O)N2CC(Oc3ccccc3)C2)ccc1NS(=O)(=O)c1cccc2cccnc12 [Compound 106] | < 100 nM
O=C(c1ccc(NS(=O)(=O)c2cccc3cccnc23)c(F)c1)N1CC(Oc2ccccc2)C1 [Compound 107] | 100 to 1000 nM
O=C(c1ccc(NS(=O)(=O)c2cccc3cccnc23)cc1)N1CC(OCc2ccccc2)C1 [Compound 108, N-(4-(3-(benzyloxy)azetidine-1-carbonyl)phenyl)quinoline-8-sulfonamide] | 100 to 1000 nM
Cc1cc(C(=O)N2CC(N(C)Cc3ccccc3)C2)ccc1NS(=O)(=O)c1cccc2cccnc12 [Compound 109, N-(4-(3-(benzyl(methyl)amino)azetidine-1-carbonyl)-2-methylphenyl)quinoline-8-sulfonamide] | 100 to 1000 nM
Cc1cc(C(=O)N2CC(OC(=O)c3ccccn3)C2)ccc1NS(=O)(=O)c1cccc2cccnc12 [Compound 110, 1-(3-Methyl-4-(quinoline-8-sulfonamido)benzoyl)azetidin-3-yl picolinate] | 100 to 1000 nM
O=C(NC1CN(C(=O)c2ccc(NS(=O)(=O)c3cccc4cccnc34)cc2)C1)c1ccccn1 [Compound 111, N-(1-(4-(Quinoline-8-sulfonamido)benzoyl)azetidin-3-yl)picolinamide] | 1000 to 10000 nM
O=C(c1ccc(NS(=O)(=O)c2cccc3cccnc23)cc1)N1CC(Nc2ccccc2)C1 [Compound 112] | < 100 nM
COc1ccccc1NC1CN(C(=O)c2ccc(NS(=O)(=O)c3cccc4cccnc34)cc2)C1 [Compound 113] | < 100 nM
COc1ccccc1NC1CN(C(=O)c2ccc(NS(=O)(=O)c3cccc4cccnc34)c(C)c2)C1 [Compound 114] | < 100 nM
COc1ccccc1NC1CN(C(=O)c2ccc(NS(=O)(=O)c3cccc4cccnc34)c(F)c2)C1 [Compound 115] | 100 to 1000 nM
COc1ccccc1NC1CN(C(=O)c2ccc(S(=O)(=O)Nc3cccc4cccnc34)cc2)C1 [Compound 116] | > 10000 nM
COc1ccccc1N(C)C1CN(C(=O)c2ccc(NS(=O)(=O)c3cccc4cccnc34)cc2)C1 [Compound 117] | 100 to 1000 nM
O=C(c1ccc(NS(=O)(=O)c2cccc3cccnc23)c(F)c1)N1CC(Nc2ccccc2)C1 [Compound 118] | 100 to 1000 nM

Structure (SMILES) | AC50
O=C(c1ccc(S(=O)(=O)Nc2cccc3cccnc23)cc1)N1CC(OCc2ccccc2)C1 [Compound 119] | 1000 to 10000 nM
Cc1cc(C(=O)N2CC(OCc3ccccc3)C2)ccc1NS(=O)(=O)c1cccc2cccnc12 [Compound 120, N-(4-(3-(benzyloxy)azetidine-1-carbonyl)-2-methylphenyl)quinoline-8-sulfonamide] | 100 to 1000 nM
O=C(NC1CN(C(=O)c2ccc(NS(=O)(=O)c3cccc4cccnc34)c(F)c2)C1)c1ccccn1 [Compound 121, N-(1-(3-Fluoro-4-(quinoline-8-sulfonamido)benzoyl)azetidin-3-yl)picolinamide] | 1000 to 10000 nM
CN(c1ccccc1)C1CN(C(=O)c2ccc(NS(=O)(=O)c3cccc4cccnc34)cc2)C1 [Compound 122] | < 100 nM
O=C(OC1CN(C(=O)c2ccc(NS(=O)(=O)c3cccc4cccnc34)c(F)c2)C1)c1ccccn1 [Compound 124, 1-(3-Fluoro-4-(quinoline-8-sulfonamido)benzoyl)azetidin-3-yl picolinate] | 1000 to 10000 nM
CC1(O)CN(C(=O)c2ccc(NS(=O)(=O)c3cccc4cccnc34)c(F)c2)C1 [Compound 125] | > 10000 nM
CC1(O)CN(C(=O)c2ccc(NS(=O)(=O)c3cccc4cccnc34)cc2)C1 [Compound 126] | > 10000 nM
COc1cc(NS(=O)(=O)c2cccc3cccnc23)ccc1C(=O)N1CC(C)(O)C1 [Compound 127] | 1000 to 10000 nM
COc1ccccc1N(C)C1CN(C(=O)c2ccc(S(=O)(=O)Nc3cccc4cccnc34)cc2)C1 [Compound 128] | > 10000 nM
COc1ccccc1OC1CN(C(=O)c2ccc(NS(=O)(=O)c3cccc4cccnc34)cc2)C1 [Compound 129] | 100 to 1000 nM
COc1cc(NS(=O)(=O)c2cccc3cccnc23)ccc1C(=O)N1CC(O)(Cc2ccccc2)C1 [Compound 130, N-(4-(3-benzyl-3-hydroxyazetidine-1-carbonyl)-3-methoxyphenyl)quinoline-8-sulfonamide] | < 100 nM
Cc1cc(C(=O)N2CC(O)(Cc3ccccc3)C2)ccc1NS(=O)(=O)c1cccc2cccnc12 [Compound 131, N-(4-(3-benzyl-3-hydroxyazetidine-1-carbonyl)-2-methylphenyl) quinoline-8-sulfonamide] | < 100 nM
Cc1cc(C(=O)N2CC(OC(=O)NC(C)C)C2)ccc1NS(=O)(=O)c1cccc2cccnc12 [Compound 132, 1-(3-Methyl-4-(quinoline-8-sulfonamido)benzoyl)azetidin-3-yl isopropylcarbamate] | 100 to 1000 nM
COc1cc(NS(=O)(=O)c2cccc3cccnc23)ccc1C(=O)N1CC(OC(=O)NC(C)C)C1 [Compound 133, 1-(2-Methoxy-4-(quinoline-8-sulfonamido)benzoyl)azetidin-3-yl isopropylcarbamate] | 100 to 1000 nM
CC(C)NC(=O)OC1CN(C(=O)c2ccc(NS(=O)(=O)c3cccc4cccnc34)c(F)c2)C1 [Compound 134, 1-(3-Fluoro-4-(quinoline-8-sulfonamido)benzoyl)azetidin-3-yl isopropylcarbamate] | 1000 to 10000 nM
CC(C)NC(=O)OC1CN(C(=O)c2ccc(NS(=O)(=O)c3cccc4cccnc34)cc2)C1 [Compound 135, 1-(4-(Quinoline-8-sulfonamido)benzoyl)azetidin-3-yl isopropylcarbamate] | 1000 to 10000 nM
O=C(c1ccc(NS(=O)(=O)c2cccc3cccnc23)cc1)N1CC(O)(c2ccccc2)C1 [Compound 136] | 100 to 1000 nM
Cc1cc(C(=O)N2CC(O)(c3ccccc3)C2)ccc1NS(=O)(=O)c1cccc2cccnc12 [Compound 137] | 100 to 1000 nM
COc1cc(NS(=O)(=O)c2cccc3cccnc23)ccc1C(=O)N1CC(O)(c2ccccc2)C1 [Compound 138] | < 100 nM
